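Growth conditions: 96-well plates. Treatment: test compound, 48 hours, 5 concentrations. Analysis: linear interpolation between bracketing concentrations; unreached endpoints set to highest concentration. Here, GI50 denotes the concentration required for 50% inhibition of growth.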 Active and inactive are the calls of the source. Rule as the data show it: active = GI50 up to about 1.1 µM and inactive = higher.
Columns and labels:
Assay in all cases: NCI-60 cell line screen, 48 h
786-0 = system: 786-0
A498 = system: A498
A549 = system: A549
ACHN = system: ACHN
BT-549 = system: BT-549
CAKI-1 = system: CAKI-1
CCRF-CEM = system: CCRF-CEM
COLO 205 = system: COLO 205
DU-145 = system: DU-145
EKVX = system: EKVX
HCT-116 = system: HCT-116
HCT-15 = system: HCT-15
HL-60 = system: HL-60
HOP-62 = system: HOP-62
HOP-92 = system: HOP-92
HT-29 = system: HT-29
Hs-578T = system: Hs-578T
IGROV-1 = system: IGROV-1
KM12 = system: KM12
LOX IMVI = system: LOX IMVI
M14 = system: M14
MCF7 = system: MCF7
MDA-MB-435 = system: MDA-MB-435
MDA-N = system: MDA-N
MOLT-4 = system: MOLT-4
Malme-3M = system: Malme-3M
NCI-H226 = system: NCI-H226
NCI-H23 = system: NCI-H23
NCI-H460 = system: NCI-H460
NCI-H522 = system: NCI-H522
NCI/ADR-RES = system: NCI/ADR-RES
OVCAR-3 = system: OVCAR-3
OVCAR-4 = system: OVCAR-4
OVCAR-5 = system: OVCAR-5
OVCAR-8 = system: OVCAR-8
PC-3 = system: PC-3
RPMI-8226 = system: RPMI-8226
RXF 393 = system: RXF 393
SF-268 = system: SF-268
SF-295 = system: SF-295
SF-539 = system: SF-539
SK-MEL-2 = system: SK-MEL-2
SK-MEL-5 = system: SK-MEL-5
SK-OV-3 = system: SK-OV-3
SN12C = system: SN12C
SNB-19 = system: SNB-19
SNB-75 = system: SNB-75
SR = system: SR
SW-620 = system: SW-620
T47D = system: T47D
TK-10 = system: TK-10
U-251 = system: U-251
UACC-257 = system: UACC-257
UACC-62 = system: UACC-62
UO-31 = system: UO-31
HCC 2998 = system: HCC 2998
K562 = system: K562
MDA-MB-231 = system: MDA-MB-231
SK-MEL-28 = system: SK-MEL-28

COc1ccc(NC(=O)CSC(=O)c2ccccc2)c(SCCSSCCSc2cc(OC)ccc2NC(=O)CSC(=O)c2ccccc2)c1 was tested, and the GI50 (786-0) was > 100 µM (inactive), the GI50 (A498) was > 100 µM (inactive) and the GI50 (A549) was > 100 µM (inactive). For the same molecule, the GI50 (ACHN) was > 100 µM (inactive), the GI50 (BT-549) was > 100 µM (inactive) and the GI50 (CAKI-1) was 18.2 µM (inactive). For the same molecule, the GI50 (CCRF-CEM) was 79.6 µM (inactive), the GI50 (COLO 205) was 11 µM (inactive) and the GI50 (DU-145) was > 100 µM (inactive). For the same molecule, the GI50 (EKVX) was 72.9 µM (inactive), the GI50 (HCT-116) was 48.8 µM (inactive) and the GI50 (HCT-15) was > 100 µM. For the same molecule, the GI50 (HL-60) was 4.22 µM (inactive), the GI50 (HOP-62) was > 100 µM (inactive) and the GI50 (HOP-92) was 84.9 µM (inactive). The GI50 (HT-29) was > 100 µM (inactive), the GI50 (Hs-578T) was > 100 µM (inactive) and the GI50 (IGROV-1) was 67.5 µM (inactive). For the same molecule, the GI50 (KM12) was 8.07 µM (inactive), the GI50 (LOX IMVI) was 20.7 µM (inactive) and the GI50 (M14) was 15.7 µM (inactive). The GI50 (MCF7) was 66.5 µM (inactive), the GI50 (MDA-MB-435) was > 100 µM (inactive) and the GI50 (MDA-N) was > 100 µM (inactive). The GI50 (MOLT-4) was 3.5 µM (inactive), the GI50 (Malme-3M) was 69.3 µM (inactive) and the GI50 (NCI-H226) was > 100 µM (inactive). The GI50 (NCI-H23) was 73.3 µM (inactive), the GI50 (NCI-H460) was 4.62 µM (inactive) and the GI50 (NCI-H522) was > 100 µM (inactive). The GI50 (NCI/ADR-RES) was > 100 µM (inactive), the GI50 (OVCAR-3) was 9.57 µM (inactive) and the GI50 (OVCAR-4) was 6.44 µM (inactive). For the same molecule, the GI50 (OVCAR-5) was > 100 µM (inactive), the GI50 (OVCAR-8) was > 100 µM (inactive) and the GI50 (PC-3) was > 100 µM (inactive). The GI50 (RPMI-8226) was > 100 µM (inactive), the GI50 (RXF 393) was > 100 µM (inactive) and the GI50 (SF-268) was 67.5 µM (inactive). The GI50 (SF-295) was > 100 µM (inactive), the GI50 (SF-539) was > 100 µM (inactive) and the GI50 (SK-MEL-2) was 27.9 µM (inactive). The GI50 (SK-MEL-5) was > 100 µM (inactive), the GI50 (SK-OV-3) was 41.5 µM (inactive) and the GI50 (SN12C) was > 100 µM (inactive). The GI50 (SNB-19) was > 100 µM (inactive), the GI50 (SNB-75) was > 100 µM (inactive) and the GI50 (SR) was 3.75 µM (inactive). The GI50 (SW-620) was > 100 µM (inactive), the GI50 (T47D) was 28.7 µM (inactive) and the GI50 (TK-10) was > 100 µM (inactive). The GI50 (U-251) was > 100 µM (inactive), the GI50 (UACC-257) was > 100 µM (inactive) and the GI50 (UACC-62) was > 100 µM (inactive). For the same molecule, the GI50 (UO-31) was 73.6 µM (inactive).
For CCOC(=O)/C(C[C@H]1OC(C)(C)O[C@@H]1[C@H]1COC(C)(C)O1)=N/O, the GI50 (786-0) was > 100 µM (inactive), the GI50 (A498) was > 100 µM (inactive) and the GI50 (A549) was > 100 µM (inactive). The GI50 (ACHN) was > 100 µM (inactive), the GI50 (BT-549) was > 100 µM (inactive) and the GI50 (CAKI-1) was > 100 µM (inactive). For the same molecule, the GI50 (CCRF-CEM) was > 100 µM (inactive), the GI50 (COLO 205) was > 100 µM (inactive) and the GI50 (DU-145) was > 100 µM (inactive). The GI50 (EKVX) was > 100 µM (inactive), the GI50 (HCC 2998) was > 100 µM (inactive) and the GI50 (HCT-116) was > 100 µM (inactive). For the same molecule, the GI50 (HCT-15) was > 100 µM, the GI50 (HL-60) was > 100 µM (inactive) and the GI50 (HOP-62) was > 100 µM (inactive). For the same molecule, the GI50 (HOP-92) was > 100 µM (inactive), the GI50 (HT-29) was > 100 µM (inactive) and the GI50 (Hs-578T) was > 100 µM (inactive). The GI50 (IGROV-1) was > 100 µM (inactive), the GI50 (K562) was > 100 µM (inactive) and the GI50 (KM12) was > 100 µM (inactive). The GI50 (LOX IMVI) was > 100 µM (inactive), the GI50 (M14) was > 100 µM (inactive) and the GI50 (MCF7) was > 100 µM (inactive). For the same molecule, the GI50 (MDA-MB-231) was > 100 µM (inactive), the GI50 (MDA-MB-435) was > 100 µM (inactive) and the GI50 (MDA-N) was > 100 µM (inactive). The GI50 (MOLT-4) was > 100 µM (inactive), the GI50 (Malme-3M) was > 100 µM (inactive) and the GI50 (NCI-H226) was > 100 µM (inactive). For the same molecule, the GI50 (NCI-H23) was > 100 µM (inactive), the GI50 (NCI-H460) was > 100 µM (inactive) and the GI50 (NCI-H522) was > 100 µM (inactive). The GI50 (NCI/ADR-RES) was > 100 µM (inactive), the GI50 (OVCAR-3) was > 100 µM (inactive) and the GI50 (OVCAR-4) was > 100 µM (inactive). For the same molecule, the GI50 (OVCAR-5) was > 100 µM (inactive), the GI50 (OVCAR-8) was > 100 µM (inactive) and the GI50 (PC-3) was > 100 µM (inactive). The GI50 (RPMI-8226) was > 100 µM (inactive), the GI50 (RXF 393) was > 100 µM (inactive) and the GI50 (SF-268) was > 100 µM (inactive). The GI50 (SF-295) was > 100 µM (inactive), the GI50 (SF-539) was > 100 µM (inactive) and the GI50 (SK-MEL-28) was > 100 µM (inactive). The GI50 (SK-MEL-2) was > 100 µM (inactive), the GI50 (SK-MEL-5) was > 100 µM (inactive) and the GI50 (SK-OV-3) was > 100 µM (inactive). The GI50 (SN12C) was > 100 µM (inactive), the GI50 (SNB-19) was > 100 µM (inactive) and the GI50 (SW-620) was > 100 µM (inactive). For the same molecule, the GI50 (TK-10) was > 100 µM (inactive), the GI50 (U-251) was > 100 µM (inactive) and the GI50 (UACC-257) was > 100 µM (inactive). The GI50 (UACC-62) was > 100 µM (inactive) and the GI50 (UO-31) was > 100 µM (inactive).
